Measured values published in article PMC4674085, “Towards Prebiotic Catalytic Amyloids Using High Throughput Screening” (PLoS ONE, 2015).
Ends that are not written are not given here.

Columns and labels:
[1] = Solubility of binary alternating Val/Ser peptides (supernatant vs precipitate, quantitated by total hydrolysis); format: physicochemical; details: 200 μM peptide, 50 mM HEPES buffer pH 7.3, fibrillization for 2 days
Excerpt: A high β-aggregation propensity is essential for a combinatorial peptide library in the form of amyloids. To satisfy this requirement we profited from the well-documented observation that in aqueous environments, binary alternating sequences of hydrophobic-hydrophilic residues are prone to oligomerize into amphipathic β-structures. In these structures, the hydrophobic residues are buried at the interface of two β-sheets, leaving the hydrophilic residues on the surface. In keeping with the theme of a prebiotic fold, we wanted to use the shortest peptides that still guaranteed a high percentage of amyloidogenic peptides in the library. […]
For peptides that contain Tyr the concentration of the peptide was measured by diluting a 3–5 mM DMSO stock of the peptide 20-fold into 10 mM HCl and quickly measuring the UV spectrum to minimize the potential for aggregation (ε276 = 1500 M^-1cm^-1). Peptide 36 was quantitated during purification by C18 reversed phase HPLC using a calculated extinction coefficient of ε214 = 13963 M^-1cm^-1. The quantification of the VS peptides in Table 1 and peptide 34 was performed by total hydrolysis in 6 M HCl at 160°C for 2 h. The hydrolyzed samples were analyzed by C18 reversed-phase and the amount of Val or Ile was calculated by comparing the chromatographic peak areas to amino acid samples of known quantity.

[2] = Circular dichroism (CD), secondary structure of aggregates; format: physicochemical; parameters: key: β+: has minimum near 217 nm; β++: has minimum near 217 nm and a maximum near 197 nm; −: signal too weak to interpret; ?: spectra not typical of any secondary structure
Protocol: The concept of creating an amyloid library out of a peptide library is only meaningful if the vast majority of the peptides actually form amyloids in at least one of the conditions tested. To establish the validity of our amyloid library we measured circular dichroism (CD), Fourier transform infrared spectroscopy (ATR-FTIR), as well as thioflavin T (ThT) fluorescence of peptides 1–33 at pH 7.3 (50 mM HEPES) and pH 4 (50 mM NaOAc) (see interactive Table A and associated data in S1 File). Based on the analysis of the CD and ATR-FTIR spectra (shown in the interactive Table A in S1 File) all the peptides formed β-structured aggregates in at least one condition. Most of the 33 peptides induced a significant increase in ThT fluorescence in at least one condition. […] The fibrils from a selection of the active peptides were aligned and analyzed by X-ray diffraction (Figures C and D in S1 File). In each case we observed the cross-β diffraction pattern typical of amyloid fibrils, although the degree of sample alignment varied. For two samples, 14 and 27, the difference in meridional and equatorial diffraction intensities was small but easily detected in a plot of the angular dependence of the intensity (Figure D in S1 File). The conclusion that can be drawn out of the multiple analysis techniques is that the 33 peptides that comprise the library are overwhelmingly prone to form fibril-like, β-structured aggregates. The cross-β diffraction of the tested aggregates would imply that they are more specifically all amyloidogenic.
CD measurements were carried out on a Jasco J815. Samples were prepared by centrifuging the amyloid library at 25,000 g for 10 min and then removing the supernatant. The pellets were resuspended at an approximate concentration of 100 μg/ml in 10 mM HEPES pH 7.3 (for mixtures from 50 mM HEPES) or 10 mM NaOAc pH 4 (for mixtures from 50 mM NaOAc), the suspensions were then treated with an ultrasonic probe for 5 s, upon which the solutions were placed in 1 mm cuvettes, diluted as necessary to maintain the detector voltage below 600 V and scanned from 260–190 nm at 50 nm/min, 1 nm band-pass, 2 second integration, averaged over 3 repetitions.
(§1) Table A and associated data: Biophysical characterization of library
(§2) Sequence ThT1 CD2 FTIR3 EM4 ThT CD FTIR EM X-ray5 […]
2. […]

[3] = Plate reader 4NPA hydrolysis kinetics of purified peptide amyloids at pH 7.3; format: biochemical; details: 4NPA hydrolysis
Protocol: The reaction buffer consisted of the same buffer as the fibrillization buffer without ZnCl2 and with 1.33 mM 4NPA prepared from a 100 mM stock in CH3CN. The samples of the amyloid library were mixed 1:3 with the reaction buffer yielding 40 μM peptide and, when present 250 μM zinc(II). The absorbance measurements were performed in a BMG Pherastar platereader with a 400 nm band-pass filter (10 nm bandwidth) in 96-well Nunclon Delta surface plates or 384-well Greiner Bio-One non-bind black μclear plates.
The kinetics assays performed on the purified peptides were prepared similarly except that the peptide concentration was 20 μM in the reaction. Furthermore, the various substrate concentrations and replicate samples were randomly distributed over the plate to minimize systematic errors. Various 4NPA concentrations (i.e. 0.1 mM, 0.2 mM, 0.4 mM, 0.6 mM, 1.0 mM) were added from a 100 times stock so that the final CH3CN concentration was always 1%. The linear part of the hydrolysis activity was fit with an extinction coefficient of ε = 9700 M^-1cm^-1 and corrected for the background reaction rate of buffer alone (v bg = 5.0 × 10^-6 Ms^-1) to obtain the initial reaction rate v 0. The average of the initial reaction rates at each substrate concentration were then fit to the Michaelis-Menten type kinetics to obtain k cat, K M and k cat/K M always calculated per monomer peptide. The background reaction rate was obtained similarly using 5 replicates.

[4] = ATR-FTIR, amide I peak of aggregates; format: physicochemical; parameters: key: indicates that no peak was observed within the typical range of stretching frequencies forβ-structure (between dashed lines at 1638 cm−1 and 1615 cm−1); details: air-dried pellet, crude peptide
Protocol: Samples were prepared as for the CD measurements, but instead of re-suspending the samples after centrifugation, 3 μl of H2O were added to the pellet so that it could be placed onto the diamond ATR cell of a Bruker Alpha-p ATR-FTIR spectrometer followed by air-drying before measuring the spectra. Blank subtraction was performed with an empty cell (air) and all measurements were performed without the pressure applicator.
as §1, §2
(§3) 3. The peak position in amide I region is given in cm−1. […]

[5] = Thioflavin T fluorescence (ThT); format: physicochemical; details: crude peptide fibrillized at 160 μM, mixed 10:1 with 50 μM ThT, ex 440 nm em 480 nm
Protocol: The samples of the amyloid library (50 mM HEPES pH 7.3 or 50 mM NaOAc pH 4) were mixed 10:1 with 50 μM ThT and the increase in fluorescence was measured in a 384-well plate in a BMG Pherastar platereader (ex: 440 nm em: 480 nm). The background signal from the peptides without ThT was subtracted from the one with the ThT present in the sample. Due to the large dynamic range of the signals among the many samples, the measurements were made at two different gain settings to ensure that all of the signals fell within the measureable range.
as §1
Sequence ThT1 CD2 FTIR3 EM4 ThT CD FTIR EM X-ray5
1. Fold increase in ThT ﬂuorescence over background. […]

[6] = Transmission electron microscopy (TEM) of fibrils; format: physicochemical; parameters: key: +: ﬁbrils present; −: absent in EM micrographs; details: uranyl acetate stain
Protocol: The samples of the amyloid library (50 mM HEPES pH 7.3 or 50 mM NaOAc pH 4) were applied directly to glow-discharged carbon-coated grids, washed and then stained with uranyl acetate. Images were recorded on a Philips CM 12 electron microscope.
as §1, §2
4. (+) ﬁbrils present or (−) absent in EM micrographs. […]

[7] = Aggregation at pH 4 from soluble material left after 100,000 g centrifugation; format: physicochemical; details: 40 μM purified peptide, pH 4, soluble material in supernatant of 100,000 g centrifugation
[8] = X-ray fiber diffraction of aligned fibrils; format: physicochemical; details: washed pellets dried between glass capillaries, room temperature
Protocol: The samples were centrifuged, the pellet resuspended (ultrapure water or 10 mM NaOAc pH 4) and centrifuged again. The washed pellets were resuspended in a minimal amount of water and 4 μl of the suspension were pipetted between the melted ends of two glass capillaries, which were then left to dry overnight in a sealed petri dish. The dried material was placed in an X-ray beam (Rigaku MicroMax-007HF) at room temperature for a 20 min exposure and diffraction data was collected on a Mar345 image plate detector.
Table A and associated data: Biophysical characterization of library […]
1. Fold increase in ThT ﬂuorescence over background.
2. CD spectra classiﬁed as follows: (β+) has minimum near 217 nm, (β++) has minimum near 217 nm and a maximum near 197 nm, (−) signal too weak to interpret, (?) spectra not typical of any secondary […]
as §3
within the typical range of stretching frequencies forβ-structure (between dashed lines at 1638 cm−1 and […]
4. (+) ﬁbrils present or (−) absent in EM micrographs.
5. Diﬀraction images recorded for the aligned ﬁbrils of 5 diﬀerent peptides (see materials and methods).

[9] = NMR-based 4NPA hydrolysis assay at pH 4.3; format: biochemical; details: 4NPA hydrolysis by 1D-1H NMR, 50 mM d3-NaOAc pH 4.3, 2% d6-DMSO, 40 μM total purified peptide (mixture 20 μM each), 0.9 mM 4NPA, 25°C, over 15 days, first order fit, no zinc(II)
Protocol: Purified peptides were solubilized in deuterated DMSO with 1% TFA at a concentration of 4 mM and subsequently diluted to 160 μM in 50 mM deuterated NaOAc buffer at pH 4.3. In the case of the peptide mixture fibrillization (12/21), each peptide was 80 μM. Fibrillization occurred over 5 days after which the sample was diluted to 40 μM total peptide in 50 mM buffer with 0.9 mM 4NPA (from a 90 mM stock solution in d6-DMSO) and a final concentration of d6-DMSO of 2%. From this reaction mixture 500 μl was transferred to a 5 mm NMR tube and measurements were performed in a 600 MHz Bruker NMR spectrometer equipped with a cryo-probe.
The hydrolysis kinetics were monitored in a continuous series of 1D-^1H experiments each consisting of 32 scans at 25°C and each requiring 17 min. In this manner, several time segments lasting between 8 and 17 hours were collected over a period of 15 days. Between measurements, the samples were kept at 25°C.
Data processing and peak integration was performed with Topspin3.2 (Bruker). Relevant peaks used for the analysis were the 4 aromatic protons of both 4NPA and of its product (p-nitrophenol) as well as the methyl groups of 4NPA and acetic acid. The ratio of the sum of integrals for the product protons to the sum of integrals for all protons was used to calculate the substrate concentration. […]

[10] = pH 4.0, pellet (25,000 g, 10 min) resuspended ~100 μg/ml in 10 mM NaOAc pH 4, crude peptide
[11] = pH 7.3, pellet (25,000 g, 10 min) resuspended ~100 μg/ml in 10 mM HEPES pH 7.3, crude peptide

Row | Substance | peptide in solution after centrifugation at 25,000 g [1] | CD spectrum class [2, 10] | CD spectrum class [2, 11] | k cat/K M ([3]; pH 7.3 HEPES with zinc(II), 20 μM purified peptide, 0.1-1.0 mM 4NPA, 1% CH3CN, A400, Michaelis-Menten fit, per monomer peptide, triplicate (duplicate for 8, 27, 34, 35)) | K M ([3]; pH 7.3 HEPES with zinc(II), 20 μM purified peptide, Michaelis-Menten fit) | k cat ([3]; pH 7.3 HEPES with zinc(II), 20 μM purified peptide, Michaelis-Menten fit, per monomer peptide) | FTIR peak position in amide I region ([4]; pH 4.0 (50 mM NaOAc)) | FTIR peak position in amide I region ([4]; pH 7.3 (50 mM HEPES)) | ThT, fold increase in ThT fluorescence over background ([5]; pH 4.0, 50 mM NaOAc) | ThT, fold increase in ThT fluorescence over background ([5]; pH 7.3, 50 mM HEPES) | EM, fibrils in EM micrographs ([6]; pH 7.3, 50 mM HEPES) | k cat/K M = k 2 from linear fit to v 0 = [E]0 k 2[S] ([3]; pH 7.3, plate reader A400, linear fit, triplicate (36 without replicates)) | aggregation behaviour at pH 4 [7] | EM, fibrils in EM micrographs ([6]; pH 4.0, 50 mM NaOAc) | X-ray diffraction of aligned fibrils [8] | k cat/K M [9]
1 | VSVSVSV-NH2 [VSVSVSV-CONH2] | less than 5% |  |  |  |  |  |  |  |  |  |  |  |  |  |  | 
2 | Ac-YVHVAVHV-NH2 [Peptide 28, Ac-YVHVAVHV-CONH2] |  | − | β+ | 0.215 ± 0.007 M⁻¹ s⁻¹ | 1.95 ± 0.23 mM | 0.042±0.004 10^-2s^-1 | − | 1624 cm⁻¹ | 1 fold | 114 fold | + |  |  |  |  | 
3 | Ac-YVHVSVHV-NH2 [Peptide 10, Ac-YVHVSVHV-CONH2] |  | − | β+ |  |  |  | − | 1623 cm⁻¹ | 1 fold | 29 fold | + | 0.172 ± 0.003 M⁻¹ s⁻¹ |  |  |  | 
4 | Ac-YVSVSVHV-NH2 [Peptide 12, Ac-YVSVSVHV-CONH2] |  |  | β++ |  |  |  | 1621 cm⁻¹ | 1623 cm⁻¹ | 5 fold | 183 fold |  |  | began to aggregate within minutes | + | cross-β | 6145.6±8.5 10^-6M^-1s^-1
